These results are taken from patent US11339171B2, “MDM2 inhibitors” (Gan & Lee Pharmaceuticals, priority 2017, dated 2022).

The assay deals with T1, MDM2 (Homo sapiens, UniProt Q00987).
T1 construct: made in house
The assay is described as follows: Inhibition test of MDM2-P53 (GST-MDM2, Biotin-P53, Anti-GST-Tb, SA-XL665). The assay is classed as binding. The settings on record: for inhibitory effect on MDM2 compared with positive control compound HDM201: labels are Example numbers, the compounds with S-configuration are meant. Here is the method: Experimental purpose: To determine the inhibitory activities of the compounds of the present invention on MDM2.
The present experiment uses the following assay methods/instruments/reagents:
Buffer: 1×PBS+0.1% BSA+5 mM DTT; MDM2 Buffer: Buffer+1 mM AEBSF
GST-MDM2: The final concentration is 4 nM, and it is required to formulate a 20 nM (5×) solution. A mother liquor is diluted by 3500 folds, wherein the mother liquor is 10-fold diluted first, and then 350-fold diluted.
Anti-GST-Tb: The final concentration is 2×, and a mother liquor is diluted by 50 folds.
MIX: GST-MDM2, Biotin-P53, SA-XL665 and Anti-GST-Tb were mixed according to a ratio of 4:4:5:5.
Sample: Preparation of a sample (10 mM in DMSO) solution: a. 3 μL sample+7 μL DMSO+20 μL DMSO were formulated to give an initial concentration of 1 mM and mixed well; b. in plate 1, twelve 5-fold serial dilutions (sequentially prepared by adding 10 μL of the last sample to 40 μL DMSO) were prepared and mixed well, individually; c. plate 2 was taken, 45 μL of Buffer was added to each well, and 5 μL of dilution at each concentration was taken from plate 1 and added to the corresponding well in plate 2 (the concentration in well 1 was 100 μM), and mixed well.
1. 18 μL of MIX was added to a 384-well plate, and centrifugation was performed at 4500 rpm for 5 min.
2. 2 μL of sample was added correspondingly to each well, the resultant was centrifuged at 25° C. and 4500 rpm for 5 min, and shaked at 25° C. for 90 min on a shaker.
Readings were obtained from the Microplate reader, and data was processed by Graphpad Prism 6.0.

T1 sequence (Q00987 whole entry): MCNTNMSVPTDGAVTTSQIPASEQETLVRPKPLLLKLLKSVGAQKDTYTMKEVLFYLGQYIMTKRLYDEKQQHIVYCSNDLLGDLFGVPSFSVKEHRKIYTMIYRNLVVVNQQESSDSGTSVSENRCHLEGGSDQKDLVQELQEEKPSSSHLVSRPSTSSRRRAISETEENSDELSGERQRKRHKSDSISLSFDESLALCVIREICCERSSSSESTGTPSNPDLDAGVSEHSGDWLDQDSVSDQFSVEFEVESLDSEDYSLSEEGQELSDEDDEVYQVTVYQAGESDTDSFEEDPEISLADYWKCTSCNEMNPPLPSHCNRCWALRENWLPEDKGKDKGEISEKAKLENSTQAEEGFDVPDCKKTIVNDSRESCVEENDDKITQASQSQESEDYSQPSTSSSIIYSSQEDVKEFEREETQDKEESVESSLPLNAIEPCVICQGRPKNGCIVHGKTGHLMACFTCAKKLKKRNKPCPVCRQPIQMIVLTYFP

For `COc1cc(OC(F)F)ncc1-c1nc2c(n1C(C)C)C1(C(=O)Nc3cc(Cl)ccc31)N(c1cc(Cl)ccc1C)C2=O` (stereo not drawn) [Example 150, 6-chloro-5′-(5-chloro-2-methylphenyl)-2′-(6-(difluoromethoxy)-4-methoxypyridin-3-yl)-3′-isopropyl-3′H-spiro[dihydroindole-3,4′-pyrrolo[3,4-d]imidazole]-2,6′(5′H)-dione], the “inhibitory effect on MDM2 compared with positive control compound HDM201” value was “better”.

Regarding `COc1cc(C(F)(F)F)ncc1-c1nc2c(n1C(C)C)C1(C(=O)Nc3cc(Cl)ccc31)N(c1cc(Cl)cnc1C)C2=O` (stereo not drawn) [Example 152, 6-chloro-5′-(5-chloro-2-methylpyridin-3-yl)-3′-isopropyl-2′-(4-methoxy-6-(trifluoromethyl)pyridine-3-yl)-3′H-spiro[dihydroindole-3,4′-pyrrolo[3,4-d]imidazole]-2,6′(5′H)-dione], the “inhibitory effect on MDM2 compared with positive control compound HDM201” value is on record as “better”.

Molecule `COc1ncc(-c2nc3c(n2C(C)C)C2(C(=O)Nc4cc(Cl)ccc42)N(c2cc(Cl)ccc2C(C)C)C3=O)c(OC)n1` (stereo not drawn) [Example 156, 6-chloro-5′-(5-chloro-2-isopropylphenyl)-2′-(2,4-dimethoxypyrimidin-5-yl)-3′-isopropyl-3′H-spiro[dihydroindole-3,4′-pyrrolo[3,4-d]imidazole]-2,6′(5′H)-dione] displayed an IC50 of 11.2 nM.

Consider `COc1cc(OCCF)ncc1-c1nc2c(n1C(C)C)C1(C(=O)Nc3cc(Cl)ccc31)N(c1cc(Cl)ccc1C)C2=O` (stereo not drawn) [Example 163, 6-chloro-5′-(5-chloro-2-methylphenyl)-2′-(6-(2-fluoroethoxy)-4-methoxypyridin-3-yl)-3′-isopropyl-3′H-spiro[dihydroindole-3,4′-pyrrolo[3,4-d]imidazole]-2,6′(5′H)-dione], for which the “inhibitory effect on MDM2 compared with positive control compound HDM201” value is “better”.

As for `COc1nc(OCCF)ncc1-c1nc2c(n1C(C)C)C1(C(=O)Nc3cc(Cl)ccc31)N(c1cc(Cl)cnc1C)C2=O` (stereo not drawn) [Example 170, 6-chloro-5′-(5-chloro-2-methylpyridin-3-yl)-2′-(2-(2-fluoroethoxy)-4-methoxypyrimidin-5-yl)-3′-isopropyl-3′H-spiro[dihydroindole-3,4′-pyrrolo[3,4-d]imidazole]-2,6′(5′H)-dione], the “inhibitory effect on MDM2 compared with positive control compound HDM201” value is reported as “better”.

Consider `COc1cc(OCCF)ncc1-c1nc2c(n1C(C)C)C1(C(=O)Nc3cc(Cl)ccc31)N(c1cc(Cl)cnc1C)C2=O` (stereo not drawn) [Example 173, 6-chloro-5′-(5-chloro-2-methylpyridin-3-yl)-2′-(6-(2-fluoroethoxy)-4-methoxypyridin-3-yl)-3′-isopropyl-3′H-spiro[dihydroindole-3,4′-pyrrolo[3,4-d]imidazole]-2,6′(5′H)-dione], for which the “inhibitory effect on MDM2 compared with positive control compound HDM201” value is on record as “better”.

In the case of `COc1cc(OC)c(-c2nc3c(n2C(C)C)C2(C(=O)Nc4cc(Cl)ccc42)N(c2cc(F)cc(Cl)c2)C3=O)cn1` (stereo not drawn) [Example 175, 6-chloro-5′-(3-chloro-5-fluorophenyl)-2′-(4,6-dimethoxypyridin-3-yl)-3′-isopropyl-3′H-spiro[dihydroindole-3,4′-pyrrolo[3,4-d]imidazole]-2,6′(5′H)-dione], the “inhibitory effect on MDM2 compared with positive control compound HDM201” value is given as “better”.

`CCc1ccccc1-c1nc2c(n1C(C)C)[C@]1(C(=O)Nc3cc(Cl)ccc31)N(c1cc(Cl)ccc1C)C2=O` [Example R-7, (R)-6-chloro-5′-(5-chloro-2-methylphenyl)-2′-(2-ethylphenyl)-3′-isopropylisopropyl-3′H-spiro[dihydroindole-3,4′-pyrrolo[3,4-d]imidazole]-2,6′(5′H)-dione] returned an IC50 of 36000 nM.

Regarding `COc1ncncc1-c1nc2c(n1C(C)C)[C@]1(C(=O)Nc3cc(Cl)ccc31)N(c1cc(Cl)ccc1C)C2=O` [Example R-27, (R)-6-chloro-5′-(5-chloro-2-methylphenyl)-3′-isopropyl-2′-(4-methoxypyrimidin-5-yl)-3′H-spiro[dihydroindole-3,4′-pyrrolo[3,4-d]imidazole]-2,6′(5′H)-dione], half-maximal inhibition (IC50) required 924 nM.

For the molecule `COc1ncc(-c2nc3c(n2C2CC2)[C@]2(C(=O)Nc4cc(Cl)ccc42)N(c2cc(Cl)ccc2C)C3=O)c(OC)n1` [Example R-28, (R)-6-chloro-5′-(5-chloro-2-methylphenyl)-3′-cyclopropane-2′-(2,4-dimethoxypyrimidin-5-yl)-3′H-spiro[dihydroindole-3,4′-pyrrolo[3,4-d]imidazole]-2,6′(5′H)-dione], half-maximal inhibition (IC50) required 3110 nM.

Molecule `CCc1ccc(OC)c(-c2nc3c(n2C(C)C)[C@]2(C(=O)Nc4cc(Cl)ccc42)N(c2cc(Cl)ccc2C)C3=O)c1` [Example R-37, (R)-6-chloro-5′-(5-chloro-2-methylphenyl)-2′-(5-ethyl-2-methoxyphenyl)-3′-isopropyl-3′H-spiro[dihydroindole-3,4′-pyrrolo[3,4-d]imidazole]-2,6′(5′H)-dione] displayed a half-inhibitory concentration (IC50) of 3110 nM.

`CCc1ccc(OC)c(-c2nc3c(n2C(C)C)[C@]2(C(=O)Nc4cc(Cl)ccc42)N(c2cccc(Cl)c2)C3=O)c1` [Example R-38, (R)-6-chloro-5′-(3-chlorophenyl)-2′-(5-ethyl-2-methoxyphenyl)-3′-isopropyl-3′H-spiro[dihydroindole-3,4′-pyrrolo[3,4-d]imidazole]-2,6′(5′H)-dione] returned an IC50 of 1120 nM.

`COc1ccc(-c2nc3c(n2C(C)C)[C@]2(C(=O)Nc4cc(Cl)ccc42)N(c2cc(Cl)cn(C)c2=O)C3=O)c(OC)c1` [Example R-39, (R)-6-chloro-5′-(5-chloro-1-methyl-2-oxo-1,2-dihydropyridin-3-yl)-2′-(2,4-dimethoxyphenyl)-3′-isopropyl-3′H-spiro[dihydroindole-3,4′-pyrrolo[3,4-d]imidazole]-2,6′(5′H)-dione] returned an IC50 of 1850 nM.

Take `COc1ncc(-c2nc3c(n2C2CCC2)[C@]2(C(=O)Nc4cc(Cl)ccc42)N(c2cc(Cl)ccc2C)C3=O)c(OC)n1` [Example R-41, (R)-6-chloro-5′-(5-chloro-2-methylphenyl)-3′-cyclobutyl-2′-(2,4-dimethoxypyrimidin-5-yl)-3′H-spiro[dihydroindole-3,4′-pyrrolo[3,4-d]imidazole]-2,6′(5′H)-dione]: the IC50 came to 7320 nM.

`COc1ccccc1-c1nc2c(n1C(C)C)[C@]1(C(=O)Nc3cc(Cl)ccc31)N(c1cc(Cl)cn(C)c1=O)C2=O` [Example R-43, (R)-6-chloro-5′-(5-chloro-1-methyl-2-oxo-1,2-dihydropyridin-3-yl)-3′-isopropyl-2′-(2-methoxyphenyl)-3′H-spiro[dihydroindole-3,4′-pyrrolo[3,4-d]imidazole]-2,6′(5′H)-dione]: the IC50 was determined as 130 nM.

The molecule `CNC(=O)c1ccc(-c2nc3c(n2C(C)C)[C@]2(C(=O)Nc4cc(Cl)ccc42)N(c2cc(Cl)ccc2C)C3=O)c(OC)c1` [Example R-54, (R)-4-(6-chloro-5′-(5-chloro-2-methylphenyl)-3′-isopropyl-2,6′-dioxo-5′,6′-dihydro-3′H-spiro[dihydroindole-3,4′-pyrrolo[3,4-d]imidazole]-2′-yl)-3-methoxy-N-methylbenzamide] had an IC50 of 1960 nM.

As for `COc1ncc(-c2nc3c(n2C(C)C)[C@]2(C(=O)Nc4cc(Cl)ccc42)N(c2ccc(C(N)=O)c(Cl)c2)C3=O)c(OC)n1` [Example R-60, (R)-2-chloro-4-(6-chloro-2′-(2,4-dimethoxypyrimidin-5-yl)-3′-isopropyl-2,6′-dioxo-3′,6′-dihydro-5′H-spiro[dihydroindole-3,4′-pyrrolo[3,4-d]imidazole]-5′-yl)benzamide], the IC50 was determined as 1070 nM.

In turn, `COc1ccc(N2C(=O)c3nc(-c4ccccc4OC)n(C(C)C)c3[C@]23C(=O)Nc2cc(Cl)ccc23)cc1Cl` [Example R-63, (R)-6-chloro-5′-(3-chloro-4-methoxyphenyl)-3′-isopropyl-2′-(2-methoxyphenyl)-3′H-spiro[dihydroindole-3,4′-pyrrolo[3,4-d]imidazole]-2,6′(5′H)-dione] displayed an IC50 of 537 nM.

`COc1ccc(-c2nc3c(n2C(C)C)[C@]2(C(=O)Nc4cc(Cl)ccc42)N(c2cc(Cl)ccc2C)C3=O)cc1` [Example R-64, (R)-6-chloro-5′-(5-chloro-2-methylphenyl)-3′-isopropyl-2′-(4-methoxyphenyl)-3′H-spiro[dihydroindole-3,4′-pyrrolo[3,4-d]imidazole]-2,6′(5′H)-dione]: the IC50 came out at 1020 nM.

Turning to `COc1cc(OC)c(-c2nc3c(n2C(C)C)[C@]2(C(=O)Nc4cc(Cl)ccc42)N(c2ccc(C(N)=O)c(Cl)c2)C3=O)cn1` [Example R-65, (R)-2-chloro-4-(6-chloro-2′-(4,6-dimethoxypyridin-3-yl)-3′-isopropyl-2,6′-dioxo-3′,6′-dihydro-5′H-spiro[dihydroindole-3,4′-pyrrolo[3,4-d]imidazole]-5′-yl)benzamide], it took 498 nM to reach half-maximal inhibition (IC50).

The molecule `COc1cc(C(=O)N(C)C)ccc1-c1nc2c(n1C(C)C)[C@]1(C(=O)Nc3cc(Cl)ccc31)N(c1cc(Cl)ccc1C)C2=O` [Example R-68, (R)-4-(6-chloro-5′-(5-chloro-2-methylphenyl)-3′-isopropyl-2,6′-dioxo-5′,6′-dihydro-3′H-spiro[dihydroindole-3,4′-pyrrolo[3,4-d]imidazole]-2′-yl)-3-methoxy-N,N-dimethylbenzamide] showed an IC50 of 657 nM.
